Test results: the supplement of paper PMC10883282
± gives the standard deviation of the averaged measurements.

Columns and labels:
Experiment in all cases: relative viability vs DMSO control (72 h) (fraction); higher = more viable cells
SW872 = test system: SW872
Outline: (§1)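 Plates held 72 h at 37 °C and 5% CO2 contained sarcoma cell lines seeded in 384-well format to reach 80–90% confluence, plus 2.5 µl of serially diluted compound added after 24 h. Source plate concentrations ran from 10 mM to 0.0002 mM, with 0.1% DMSO as vehicle and a 5 µM positive control. Percent growth from ATPLite readings, averaged over up to triplicate wells, gave relative viability. Values were rescaled with 1 as full and 0 as none.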

A204 = test system: A204
Outline: as §1

SYO-1 = test system: SYO-1
Outline: as §1

SK-ES-1 = test system: SK-ES-1
Outline: as §1

SW982 = test system: SW982
Outline: as §1

HS729 = test system: HS729
Outline: as §1

KHOS-240S = test system: KHOS-240S
Outline: as §1

SW1353 = test system: SW1353
Outline: as §1

G401 = test system: G401
Outline: as §1

SW684 = test system: SW684
Outline: as §1

MES-SA = test system: MES-SA
Outline: as §1

SK-LMS-1 = test system: SK-LMS-1
Outline: as §1

CN(C)C(=O)c1cc2cnc(Nc3ccc(N4CCNCC4)cn3)nc2n1C1CCCC1 [Ribociclib]
Settings	relative viability
A204, 0.00017 µM	1.07 ± 0.032
A204, 0.00051 µM	1.09 ± 0.055
A204, 0.00152 µM	1.08 ± 0.058
A204, 0.00457 µM	1.09 ± 0.026
A204, 0.01372 µM	1.05 ± 0.068
A204, 0.04115 µM	1.05 ± 0.039
A204, 0.1235 µM	0.967 ± 0.037
A204, 0.3704 µM	0.907 ± 0.019
A204, 1.111 µM	0.921 ± 0.059
A204, 3.333 µM	0.795 ± 0.027
A204, 10 µM	0.639 ± 0.035
G401, 0.00017 µM	0.987 ± 0.028
G401, 0.00051 µM	0.968 ± 0.025
G401, 0.00152 µM	1.02 ± 0.029
G401, 0.00457 µM	0.983 ± 0.022
G401, 0.01372 µM	0.97 ± 0.038
G401, 0.04115 µM	0.899 ± 0.022
G401, 0.1235 µM	0.898 ± 0.018
G401, 0.3704 µM	0.886 ± 0.019
G401, 1.111 µM	0.846 ± 0.049
G401, 3.333 µM	0.794 ± 0.021
G401, 10 µM	0.774 ± 0.049
HS729, 0.00017 µM	0.88 ± 0.055
HS729, 0.00051 µM	0.877 ± 0.024
HS729, 0.00152 µM	0.878 ± 0.059
HS729, 0.00457 µM	0.893 ± 0.033
HS729, 0.01372 µM	0.905 ± 0.037
HS729, 0.04115 µM	0.915 ± 0.066
HS729, 0.1235 µM	0.928 ± 0.017
HS729, 0.3704 µM	0.875 ± 0.031
HS729, 1.111 µM	0.89 ± 0.027
HS729, 3.333 µM	0.87 ± 0.014
HS729, 10 µM	0.869 ± 0.05
KHOS-240S, 0.00017 µM	1.08 ± 0.079
KHOS-240S, 0.00051 µM	1.07 ± 0.016
KHOS-240S, 0.00152 µM	1.08 ± 0.043
KHOS-240S, 0.00457 µM	1.1 ± 0.029
KHOS-240S, 0.01372 µM	1.06 ± 0.056
KHOS-240S, 0.04115 µM	1.08 ± 0.045
KHOS-240S, 0.1235 µM	1.04 ± 0.013
KHOS-240S, 0.3704 µM	1.05 ± 0.051
KHOS-240S, 1.111 µM	1 ± 0.013
KHOS-240S, 3.333 µM	0.891 ± 0.012
KHOS-240S, 10 µM	0.784 ± 0.045
MES-SA, 0.00017 µM	0.899 ± 0.018
MES-SA, 0.00051 µM	0.909 ± 0.044
MES-SA, 0.00152 µM	0.914 ± 0.028
MES-SA, 0.00457 µM	0.908 ± 0.035
MES-SA, 0.01372 µM	0.896 ± 0.035
MES-SA, 0.04115 µM	0.884 ± 0.04
MES-SA, 0.1235 µM	0.868 ± 0.042
MES-SA, 0.3704 µM	0.853 ± 0.056
MES-SA, 1.111 µM	0.817 ± 0.05
MES-SA, 3.333 µM	0.6876 ± 0.0047
MES-SA, 10 µM	0.598 ± 0.029
SK-ES-1, 0.00017 µM	1.03 ± 0.064
SK-ES-1, 0.00051 µM	1.04 ± 0.049
SK-ES-1, 0.00152 µM	1.06 ± 0.042
SK-ES-1, 0.00457 µM	1.02 ± 0.058
SK-ES-1, 0.01372 µM	1.04 ± 0.075
SK-ES-1, 0.04115 µM	0.989 ± 0.011
SK-ES-1, 0.1235 µM	0.837 ± 0.048
SK-ES-1, 0.3704 µM	0.761 ± 0.04
SK-ES-1, 1.111 µM	0.659 ± 0.031
SK-ES-1, 3.333 µM	0.466 ± 0.024
SK-ES-1, 10 µM	0.427 ± 0.0091
SK-LMS-1, 0.00017 µM	1.05 ± 0.05
SK-LMS-1, 0.00051 µM	1.05 ± 0.064
SK-LMS-1, 0.00152 µM	1.12 ± 0.049
SK-LMS-1, 0.00457 µM	1.08 ± 0.031
SK-LMS-1, 0.01372 µM	1.09 ± 0.017
SK-LMS-1, 0.04115 µM	1.11 ± 0.029
SK-LMS-1, 0.1235 µM	1.06 ± 0.095
SK-LMS-1, 0.3704 µM	1.01 ± 0.039
SK-LMS-1, 1.111 µM	0.99 ± 0.08
SK-LMS-1, 3.333 µM	0.952 ± 0.052
SK-LMS-1, 10 µM	0.9041 ± 0.0065
SW684, 0.00017 µM	1.16 ± 0.034
SW684, 0.00051 µM	1.16 ± 0.066
SW684, 0.00152 µM	1.14 ± 0.015
SW684, 0.00457 µM	1.15 ± 0.057
SW684, 0.01372 µM	1.13 ± 0.043
SW684, 0.04115 µM	1.15 ± 0.012
SW684, 0.1235 µM	1.15 ± 0.059
SW684, 0.3704 µM	1.14 ± 0.054
SW684, 1.111 µM	1.17 ± 0.051
SW684, 3.333 µM	1.1 ± 0.051
SW684, 10 µM	1.05 ± 0.02
SW872, 0.00017 µM	1.03 ± 0.082
SW872, 0.00051 µM	1.01 ± 0.049
SW872, 0.00152 µM	1.02 ± 0.054
SW872, 0.00457 µM	1.02 ± 0.061
SW872, 0.01372 µM	1.02 ± 0.056
SW872, 0.04115 µM	0.996 ± 0.067
SW872, 0.1235 µM	0.959 ± 0.035
SW872, 0.3704 µM	0.938 ± 0.068
SW872, 1.111 µM	0.946 ± 0.033
SW872, 3.333 µM	0.818 ± 0.066
SW872, 10 µM	0.713 ± 0.047
SW982, 0.00017 µM	1.03 ± 0.031
SW982, 0.00051 µM	1.03 ± 0.045
SW982, 0.00152 µM	1.04 ± 0.013
SW982, 0.00457 µM	1.0148 ± 0.0007
SW982, 0.01372 µM	1.05 ± 0.04
SW982, 0.04115 µM	1.02 ± 0.069
SW982, 0.1235 µM	0.992 ± 0.075
SW982, 0.3704 µM	1.02 ± 0.014
SW982, 1.111 µM	0.993 ± 0.058
SW982, 3.333 µM	0.788 ± 0.035
SW982, 10 µM	0.66 ± 0.042
SW1353, 0.00017 µM	1.01 ± 0.038
SW1353, 0.00051 µM	1 ± 0.06
SW1353, 0.00152 µM	0.974 ± 0.036
SW1353, 0.00457 µM	0.985 ± 0.017
SW1353, 0.01372 µM	0.992 ± 0.033
SW1353, 0.04115 µM	0.961 ± 0.039
SW1353, 0.1235 µM	0.921 ± 0.031
SW1353, 0.3704 µM	0.918 ± 0.044
SW1353, 1.111 µM	0.901 ± 0.012
SW1353, 3.333 µM	0.802 ± 0.02
SW1353, 10 µM	0.858 ± 0.046
SYO-1, 0.00017 µM	0.96 ± 0.055
SYO-1, 0.00051 µM	0.956 ± 0.053
SYO-1, 0.00152 µM	0.96 ± 0.03
SYO-1, 0.00457 µM	0.937 ± 0.035
SYO-1, 0.01372 µM	0.923 ± 0.041
SYO-1, 0.04115 µM	0.87 ± 0.094
SYO-1, 0.1235 µM	0.814 ± 0.091
SYO-1, 0.3704 µM	0.772 ± 0.093
SYO-1, 1.111 µM	0.705 ± 0.086
SYO-1, 3.333 µM	0.598 ± 0.027
SYO-1, 10 µM	0.523 ± 0.047
